For series [1] the following is noted: 298.15 K; 101.33 kPa; Liquid.
Series [2] in a line: refractive index (Na D-line) (dimensionless). Particulars: 298.15 K; 101.33 kPa; Liquid; Standard Abbe refractometry.

Usually mass density stands for the mass of a sample divided by its volume. As a reminder, the refractive index is a measure of how strongly the sample bends light.

± gives the expanded uncertainty stated by the source.

Turning to `CC(C)CO` [2-methyl-1-propanol], in series [1], the mass density is listed as 797.83 ± 0.48 kg/m3. Besides, the refractive index in series [2] is recorded as 1.3938 ± 0.0005. On the same counts, the results for `CC(=O)OCC(C)C` [2-methylpropyl ethanoate] are 866.12 ± 1.4 kg/m3 and 1.3876 ± 0.0006. The like results for `CC(=O)O` [acetic acid] were, in that order, 1043.9 ± 0.11 kg/m3 and 1.3696 ± 0.0005. As to `O` [water], the refractive index in series [2] was determined as 1.3325 ± 0.0005.

Source of the values: the NIST ThermoML archive (doi:10.1016/j.fluid.2008.07.001).
